Experimental data reported in patent US9850227B2 (YUHAN CORPORATION, priority 2011, dated 2017).
Counter-ions that a name gives are not always drawn.

Molecular target: T1, human 5-HT4(a) (Homo sapiens, UniProt Q13639)
T1 construct: host or cells: GeneBIAzer HTR4-CRE-bla CHO-K1 cells
Assay: Evaluation of agonistic activity in CHO-K1 cells expressing human 5-HT4(a) (GeneBIAzer HTR4-CRE-bla CHO-K1 cells, beta-lactamase fluorescence ratio, EC50 from 8 concentrations)
Assay type: cell-based
Outline: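 HTR4-CRE-bla CHO-K1 cells (10^4 per well, overnight in 1% FBS medium) exposed to compound for 5 h, then beta-lactamase substrate 2 h in the dark. Fluorescence ratio at 465/535 nm after 410 nm excitation; EC50 by non-linear regression over 8 concentrations.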

T1 sequence (Q13639 1-387 isoform Q13639-2): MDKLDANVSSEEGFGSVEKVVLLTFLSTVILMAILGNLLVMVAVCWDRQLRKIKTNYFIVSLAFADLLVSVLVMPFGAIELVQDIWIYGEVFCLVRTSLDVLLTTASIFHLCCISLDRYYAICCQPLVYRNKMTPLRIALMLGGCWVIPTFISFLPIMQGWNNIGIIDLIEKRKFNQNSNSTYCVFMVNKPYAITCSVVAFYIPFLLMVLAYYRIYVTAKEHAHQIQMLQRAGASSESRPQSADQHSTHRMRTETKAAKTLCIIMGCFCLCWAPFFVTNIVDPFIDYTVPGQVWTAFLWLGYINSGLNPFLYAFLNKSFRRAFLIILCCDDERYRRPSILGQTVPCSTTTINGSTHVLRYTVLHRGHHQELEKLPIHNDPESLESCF

EC50 [nM]	Compound
0.0091	CCCCc1cc(N2CCC[C@@H](NCCCSC)C2)nc(Nc2ccc(C)c(C#N)c2)n1 [Example 305, (R)-5-{[4-butyl-6-(3-{[3-(methylthio)propyl]amino}piperidin-1-yl)pyrimidin-2-yl]amino}-2-methylbenzonitrile]
0.015	CCCc1cc(N2CCC[C@@H](NC)C2)nc(Nc2ccc(F)c(N)c2)n1 [Example 306, (R)-4-fluoro-N^1-{4-[3-(methylamino)piperidin-1-yl]-6-propylpyrimidin-2-yl}benzene-1,3-diamine]
0.004	CCCc1cc(N2CCC[C@@H](NC)C2)nc(Nc2ccc(Cl)c(N)c2)n1 [Example 307, (R)-4-chloro-N^1-{4-[3-(methylamino)piperidin-1-yl]-6-propylpyrimidin-2-yl}benzene-1,3-diamine]
0.013	CCCc1cc(N2CCC[C@@H](NC)C2)nc(Nc2ccc(N)c(C#N)c2)n1 [Example 308, (R)-2-amino-5-({4-[3-(methylamino)piperidin-1-yl]-6-propylpyrimidin-2-yl}amino)benzonitrile]
0.011	CCCc1cc(N2CCC[C@@H](NC)C2)nc(Nc2ccc(C)c(OC)c2)n1 [Example 309, (R)—N-(3-methoxy-4-methylphenyl)-4-[3-(methylamino)piperidin-1-yl]-6-propylpyrimidin-2-amine]

Continued, compound first:

Compound	EC50 [nM]
CCCCc1cc(N2CCC[C@@H](NC(C)=O)C2)nc(Nc2ccc(C)c(C#N)c2)n1 [Example 295, (R)—N-{1-[6-butyl-2-(3-cyano-4-methylphenylamino)pyrimidin-4-yl]piperidin-3-yl}acetamide]	0.0086
CCCc1cc(N2CCC[C@H](NCC)C2)nc(Nc2ccc(C)c(C#N)c2)n1 [Example 296, (S)-5-[4-(3-ethylaminopiperidin-1-yl)-6-propylpyrimidin-2-ylamino]-2-methylbenzonitrile dihydrochloride]	0.015
CCCc1cc(N2CCCC(NCC)C2)nc(Nc2ccc(C)c(C#N)c2)n1 (stereo not drawn) [Example 297, 5-[4-(3-ethylaminopiperidin-1-yl)-6-propylpyrimidin-2-ylamino]-2-methylbenzonitrile dihydrochloride]	0.0024
CCCCc1cc(N2CCCC(NC(C)=O)C2)nc(Nc2ccc(C)c(C#N)c2)n1 (stereo not drawn) [Example 298, N-{1-[6-butyl-2-(3-cyano-4-methylphenylamino)pyrimidin-4-yl]piperidin-3-yl}acetamide hydrochloride]	0.012
CCCCc1cc(N2CCC[C@@H](NCC)C2)nc(Nc2ccc(C)c(C#N)c2)n1 [Example 299, (R)-5-({4-butyl-6-[3-(ethylamino)piperidin-1-yl]pyrimidin-2-yl}amino)-2-methylbenzonitrile]	0.004
CCCCN[C@@H]1CCCN(c2cc(CCCC)nc(Nc3ccc(C)c(C#N)c3)n2)C1 [Example 300, (R)-5-({4-butyl-6-[3-(butylamino)piperidin-1-yl]pyrimidin-2-yl}amino)-2-methylbenzonitrile]	0.0097
CCCCCN[C@@H]1CCCN(c2cc(CCCC)nc(Nc3ccc(C)c(C#N)c3)n2)C1 [Example 301, (R)-5-({4-butyl-6-[3-(pentylamino)piperidin-1-yl]pyrimidin-2-yl}amino)-2-methylbenzonitrile]	0.019
CCCCc1cc(N2CCC[C@@H](NCC(C)C)C2)nc(Nc2ccc(C)c(C#N)c2)n1 [Example 302, (R)-5-({4-butyl-6-[3-(isobutylamino)piperidin-1-yl]pyrimidin-2-yl}amino)-2-methylbenzonitrile]	0.019
CCCCc1cc(N2CCC[C@@H](NCCC(C)C)C2)nc(Nc2ccc(C)c(C#N)c2)n1 [Example 303, (R)-5-({4-butyl-6-[3-(isopentylamino)piperidin-1-yl]pyrimidin-2-yl}amino)-2-methylbenzonitrile]	0.025
CCCCc1cc(N2CCC[C@@H](NCC(C)(C)C)C2)nc(Nc2ccc(C)c(C#N)c2)n1 [Example 304, (R)-5-({4-butyl-6-[3-(neopentylamino)piperidin-1-yl]pyrimidin-2-yl}amino)-2-methylbenzonitrile]	0.049
